Laboratory results taken from EP1280522B1, “COMBINATION OF CARBOXYALKYLETHERS WITH ANTIHYPERTENSIVES AND PHARMACEUTICAL USE” (WARNER-LAMBERT COMPANY, priority 2000, dated 2001).
“And” between values parts separate entries of the source, which are not always exact repeats. Equal entries are not always repeated.

Assays:
SHR = assay: Antihypertensive effect on MABP in SHR by radiotelemetry: CI-1027, amlodipine and their combination (Example 2); format: in vivo, rats; conditions: for MABP: peak MABP 4-6 hours postdose
Protocol: The general procedure of Example 1 was followed to evaluate the antihypertensive efficacy of the carboxyalkylether CI-1027 alone and in combination with the calcium channel blocker amlodipine.
Male SHR (15-20 weeks old, Charles River Laboratories) were prepared with indwelling aortic catheters and radiotransmitters for continuous measurement of arterial blood pressure and heart rate. Animals were allowed food and water ad libitum. Before dosing all rats were given a minimum of 7 days for recovery from surgery.
The experiment was carried out over 22 days in 3 groups of SHR. Group I served as a control and received 2 mL/kg/day of vehicle (same as in Example 1) for 22 consecutive days. Group II, used to determined the antihypertensive response to amlodipine monotherapy, was given vehicle for the first 13 consecutive days. Then on Day 14, amlodipine was added at a dose of 0.3 mg/kg/day for 3 consecutive days. The dose was then increased to 1 mg/kg/day for the next 3 days, and on the final 3 days, 3 mg/kg/day was given. To determine the response to CI-1027 monotherapy, Group III received a 13-day treatment with CI-1027 monotherapy at a dose of 30 mg/kg/day. The antihypertensive response to the combination therapy was determined by the addition of amlodipine to ongoing CI-1027 treatment on Day 14.
Drugs were suspended or dissolved in vehicle that contains 96% water, 3% carboxymethocellulose, and 1% tween 88. Compounds were given at 9 AM daily by oral gavage in a volume of 2 mL/kg. The combination of CI-1027 and amlodipine was given as a single gavage in a volume of 2 mL/kg.

[1] = tested on: spontaneously hypertensive rats (SHR); assay: Antihypertensive effect on MABP in SHR by radiotelemetry: CI-1027, quinapril and their combination (Example 1); format: in vivo; conditions: for MABP: peak MABP 2-4 hours postdose
Protocol: The antihypertensive effects of the carboxyalkylether compound of Formula III (CI-1027), alone and in combination with an antihypertensive agent such as quinapril (CI-906), were evaluated in rats according to the following protocol.
Male spontaneously hypertensive rats (SHR, 15-20 weeks old, Charles River Laboratories, Wilmington, Massachusetts) were prepared with indwelling aortic catheters and radiotransmitters (Data Sciences International, Saint Paul, Minnesota). The radiotransmitters provided continuous measurement of aortic blood pressure waveform. From the aortic blood pressure waveform a Ponemah (Gould Instruments Inc, Valley View, Ohio) computer provided mean arterial blood pressure (MABP) and heart rate values continuously as one-minute averages. One-minute data was then summarized at 15-minute intervals using Excel (Microsoft Corporation, Redmond, Washington) spreadsheets. Animals were allowed food and water ad libitum. To allow for recovery following surgery, rats were not dosed for a minimum of 7 days. Day 0 predose blood pressures were obtained by averaging eight 15-minute MABP measurements made 2 hours before dosing. To obtain the peak response to treatment (Days 0, 12, 16, 19, and 22), the 15-minute MABP measurements in the interval between 2 and 4 hours post-dose were averaged.
Test compounds were given in a vehicle that contained 96% water, 3% carbomethocellulose (Sigma Chemical, Saint Louis, Missouri) and 1% tween 88 (polyoxyethylenesorbitan monooleate, Sigma Chemical). CI-1027 and quinapril monotherapy were administered at 8:30 AM daily by oral gavage in a volume of 2 mL/kg. The combination of CI-1027 and quinapril was given as a single gavage in a volume of 2 mL/kg.
The experiment was carried out over 22 days in 4 groups of animals. Group I served as a control and received 2 mL/kglday of vehicle for 22 consecutive days. Group II, used to determine the antihypertensive response to quinapril monotherapy, was given vehicle for the first 12 to 13 consecutive days. Then on Day 13 to 14 quinapril was added at a dose of 0.3 mg/kg/day for 3 to 4 consecutive days; the dose was then increased to 1 mg/kg/day for the next 3 days, and on the final 3 days, 3 mg/kg/day was administered. To determine the response to CI-1027 monotherapy, Groups III and IV received 12-day treatment with CI-1027 monotherapy at doses of 30 and 100 mg/kg/day, respectively. To determine the antihypertensive response to the combination therapy quinapril, was added to the ongoing CI-1027 treatment (Day 13-14) using the rising dose protocol described for Group II (quinapril monotherapy).

`CCOC(=O)C1=C(COCCN)NC(C)=C(C(=O)OC)C1c1ccccc1Cl` (stereo not drawn) [Amlodipine, amlodipine] was tested, and the MABP (SHR; Group 2, Day 16, Amlodipine 0.3 mg/kg/day oral gavage, mean ± standard error) was “Amlodipine (0.3 mg/kg/day) 140 ± 6 mm Hg”, the MABP (SHR; Group 2, Day 19, Amlodipine 1 mg/kg/day oral gavage) was “Amlodipine (1 mg/kg/day) 131 ± 5 mm Hg” and the minimal effective dose (SHR; Rattus norvegicus, po, amlodipine monotherapy (Group II), rising dose protocol, read-out: threshold antihypertensive dose) was 1 mg/kg/day.
In the case of `CC(C)(CCCCOCCCCC(C)(C)C(=O)O)C(=O)O` [CI-1027], the MABP (SHR; Group 3, Day 0, CI-1027 30 mg/kg/day oral gavage, predose 131 ± 3) is reported as “CI-1027 (30 mg/kg/day) 129 ± 4 mm Hg”, the antihypertensive activity ([1]; CI-1027 monotherapy, 12 days, 30 and 100 mg/kg/day) is reported as “modest” and the MABP ([1]; Group 3, Day 0, CI-1027 30 mg/kg/day oral gavage, predose 149 ± 3) is reported as 145 ± 4 mm Hg. For the same compound, the MABP ([1]; Group 3, Day 12, CI-1027 30 mg/kg/day oral gavage, 30 mg/kg/day) was 131 mm Hg and 131 ± 3 mm Hg and the MABP ([1]; Group 4, Day 0, CI-1027 100 mg/kg/day oral gavage, predose 141 ± 4) was 141 ± 4 mm Hg.
In the case of `CCOC(=O)[C@H](CCc1ccccc1)N[C@@H](C)C(=O)N1Cc2ccccc2C[C@H]1C(=O)O` [Quinapril, quinapril], the MABP ([1]; Group 2, Day 16, Quinapril 0.3 mg/kg/day oral gavage, mean ± standard error) is reported as 122 ± 5 mm Hg, the MABP ([1]; Group 2, Day 19, Quinapril 1 mg/kg/day oral gavage, mean ± standard error) is reported as 121 ± 4 mm Hg and the MABP ([1]; Group 2, Day 22, Quinapril 3 mg/kg/day oral gavage, mean ± standard error) is reported as 117 mm Hg and 117 ± 4 mm Hg. For the same compound, the “antihypertensive response at 3 mg/kg/day greater than noted at 0.3 mg/kg/day” value ([1]; Quinapril monotherapy, rising dose protocol, difference between 3 and 0.3 mg/kg/day) was 5 mm Hg.
